This note sets out measurements from patent US12280039B2, “Cancer vaccine compositions and methods of use thereof” (priority 2018, dated 2025).

This assay concerns live 4T1 tumor cells. The assay can be described thus: Serum IgG antibody binding to live 4T1 tumor cells. In kind it is in vivo, mice. To be noted: inactivated 4T1 vaccine day 1 and 14; serum 1:1000 dilution.

Method: The vaccines were given subcutaneously in equal volumes in both the left and right forelimb of the mice, close to the foot. Mice received 1.7×10^6 cells per mouse per vaccine. Vaccines were given on day 1 and then again on day 14. Mice were euthanized 8 days after the booster vaccine was given and spleen and blood was collected. The serum from these mice was screened against live 4T1 tumor cells for IgG antibody binding by incubating serum with the cells at either a 1:500 or a 1:1000 dilution, staining with a fluorescently-labeled donkey anti-mouse secondary antibody, then subtracting out the background staining (normal mouse serum at 1:500 and 1:1000).

On to `CC(C)Cn1cnc2c(N)nc3ccccc3c21` [Imiquimod, imiquimod], for which the “serum IgG binding to live 4T1 cells (staining)” value was “variable amounts”.
